# Laboratory results: US20050064382A1, “Method of prevention of lysosomal leakage in eukaryotic cells by using 6-methyluracil based water-soluble compounds and method of producing thereof” (priority 2002, published 2005)
# What was measured:
# MEL cells [1] = experiment: Mild damage: cells damaged by one freeze/thaw cycle; assay type: cell-based, mouse; conditions: 24 hours
# Description: Mild Damage: Influence of Glucural on cells damaged by one-freeze/thaw cycle. Cells were treated exactly as above except that they were subjected to one freeze/thaw cycle (in the absence of cryo-protector) prior to incubation at 37° C. for 24 hours.
# MEL cells [2] = experiment: Moderate damage: storage three days at −135° C. then growth in 1% DMSO; assay type: cell-based, mouse; conditions: 24 hours
# Description: The cells were then brought to −135° C. over a two-hour period and stored at this temperature for 3 days. […] The number of cells per ml. is x 10^4, columns represent different assays.
# [3] = tested on: immortal human monocytes (THP-1 cells); experiment: Short-term growth of THP-1 cells in 10% DMSO (trypan-blue test); assay type: cell-based
# Description: Percentage of dead cells (trypan-blue test) and concentrations of live cells (×1,000,000 cells/ml) were determined. The growth medium was RPMI 1640 with fetal serum and other supplements.
# [4] = tested on: Human umbilical cord vein endothelial cells (HUCVEC); experiment: HUCVEC Assay 1: enzymatic and mechanical damage; assay type: cell-based; conditions: after 7 days, without change of medium
# Description: (§1) Glucural was also tested on two primer cell cultures for protection against cell death in sub-optimal conditions.
# (§2) Human umbilical cord vein endothelial cells (HUCVEC) were isolated from freshly obtained human umbilical cords in accordance with known methods. HUCVEC were grown in multi-well plates. After saturation of the wells, the assays were initiated. Four wells were used for each experimental group. To cause “mechanical” damage, a higher (2-2½ times) centrifugal speed was used to pick up cells after trypsin treatment. To cause enzymatic damage, full-strength trypsin solution was used instead of the recommended diluted concentration. All assays were started from the last change of medium in wells with saturated cell culture (well bottoms were covered completely by cells). Results were estimated from the percentage of the bottom covered by cells on the last day of the assay.
# Assay 1. Enzymatic and mechanical damage to cells: Growth after 7 days, without change of medium.
# [5] = tested on: Human umbilical cord vein endothelial cells (HUCVEC); experiment: HUCVEC Assays 2 and 3: starvation; assay type: cell-based; conditions: 11 days without change of medium
# Description: as §1, §2
# Assay 2 and 3. Starvation—cell growth without change of medium during 11 days. Assays 2 and 3 were performed using two different HUCVEC isolations.
# Drosophila [6] = experiment: X-ray caused loss of X-chromosomes in late oocyte of Drosophila; assay type: in vivo; conditions: 1000 Roentgens
# Drosophila [7] = experiment: Sterol-deficit diet and both drugs: frequency of X-chromosomes loss in late oocytes of Drosophila; assay type: in vivo
# Excerpt: The classic genetic model was used, based on the well-known method: the frequency of mutations in Drosophila (fruit flies) caused by X-rays. It is known that the frequency of these mutations can be increased by adding to the food of females certain membrane destabilizers (we used Polyene Antibiotics—Amphotericin B), or by the use of a special diet. Like all insects, Drosophila obtain all of their sterols from food (yeast for Drosophila). A special diet rich with Nistatin (Polyene antibiotic) resistant yeast was used.
# The frequency of the loss of x-chromosomes (males excluded) was measured after crossing with the […]. Females were given a dose of 1000 Roentgens 5 days before being given the food additive or “special diet”.
# Influence of sterol-deficit diet and both drugs on the frequency of X-chromosomes loss in late oocytes of Drosophila. Groups 1-4 received yeast of wild type, groups 5,6 (diet) received nistatin resistant yeasts meaning groups 5,6 had abnormal sterols in membranes: […]
# mice = experiment: Toxicity LD50; assay type: in vivo
# Shelf life = assay type: physicochemical; conditions: ambient temperatures
# [8] = 10% DMSO plus Glucural 10 mkg/ml, 4.5 hrs
# [9] = 10% DMSO plus Glucural 10 mkg/ml, 24 hrs
# [10] = 10% DMSO plus Glucural 20 mkg/ml, 4.5 hrs
# [11] = 10% DMSO plus Glucural 20 mkg/ml, 24 hrs
# [12] = 10% DMSO plus Glucural 50 mkg/ml, 4.5 hrs
# [13] = 10% DMSO plus Glucural 50 mkg/ml, 24 hrs
substance,measurement,setting,value
"complex of 2,4-dihydroxy-6-methylpyrimidine with N-methyl-D-glucamine [Glucural]","number of cells per ml, Mild damage",MEL cells [1]; Glucural 25 mkg/ml,36 x 10^4
same,"number of cells per ml, Mild damage",MEL cells [1]; Glucural 50 mkg/ml,53 ± 5 x 10^4
same,"number of cells per ml, Mild damage",MEL cells [1]; Glucural 100 mkg/ml,40 ± 1 x 10^4
same,"number of cells per ml, Mild damage",MEL cells [1]; Glucural 200 mkg/ml,45 ± 0 x 10^4
same,"number of cells per ml, Mild damage",MEL cells [1]; Glucural 400 mkg/ml,31 ± 1 x 10^4
same,"number of cells per ml, Moderate damage",MEL cells [2]; Glucural 25 mkg/ml,58 ± 3 x 10^4
same,"number of cells per ml, Moderate damage",MEL cells [2]; Glucural 50 mkg/ml,76 ± 1 x 10^4
same,"number of cells per ml, Moderate damage",MEL cells [2]; Glucural 100 mkg/ml,82 ± 1 x 10^4
same,"number of cells per ml, Moderate damage",MEL cells [2]; Glucural 200 mkg/ml,163 ± 3 x 10^4
same,Percentage of dead cells (trypan-blue test),[3]; [8],13.3 ± 1.3%
same,concentrations of live cells,[3]; [8],"1.06 ± 0.08 ×1,000,000 cells/ml"
same,Percentage of dead cells (trypan-blue test),[3]; [9],40.5 ± 0.5%
same,concentrations of live cells,[3]; [9],"2.21 ± 0.26 ×1,000,000 cells/ml"
same,Percentage of dead cells (trypan-blue test),[3]; [10],2.6 ± 2.0%
same,concentrations of live cells,[3]; [10],"0.52 ± 0.05 ×1,000,000 cells/ml"
same,Percentage of dead cells (trypan-blue test),[3]; [11],36.1 ± 0.75%
same,concentrations of live cells,[3]; [11],"0.86 ± 0.04 ×1,000,000 cells/ml"
same,Percentage of dead cells (trypan-blue test),[3]; [12],17.2 ± 0.4%
same,concentrations of live cells,[3]; [12],"0.65 ± 0.03 ×1,000,000 cells/ml"
same,Percentage of dead cells (trypan-blue test),[3]; [13],39.5 ± 1.1%
same,concentrations of live cells,[3]; [13],"1.31 ± 0.02 ×1,000,000 cells/ml"
same,Percent of well-bottom covered by cells,[4]; Glucural 40 mkg/ml,2-5%
same,Percent of well-bottom covered by cells,[4]; Glucural 400 mkg/ml,70-80%
same,Percent of well-bottoms covered by cells,"[5]; Assay 2, Glucural 300 mkg/ml",70-80%
same,Percent of well-bottoms covered by cells,"[5]; Assay 2, Glucural 400 mkg/ml",80-90%
same,Percent of well-bottoms covered by cells,"[5]; Assay 2, Glucural 500 mkg/ml",80-90%
same,Percent of well-bottoms covered by cells,"[5]; Assay 3, Glucural 300 mkg/ml",100%
same,Percent of well-bottoms covered by cells,"[5]; Assay 3, Glucural 400 mkg/ml",100%
same,Percent of well-bottoms covered by cells,"[5]; Assay 3, Glucural 500 mkg/ml",100%
same,"Frequency of the loss of X-chromosomes, %",Drosophila [6]; 1.0 mkg/female,1.7 ± 0.21%
same,"Frequency of the loss of X-chromosomes, %",Drosophila [6]; 2.0 mkg/female,1.1 ± 0.20%
same,"Frequency of the loss of X-chromosomes, %",Drosophila [6]; 2.5 mkg/female,0.9 ± 0.18%
same,"Frequency of the loss of X-chromosomes, %",Drosophila [6]; 5.0 mkg/female,0.7 ± 0.14%
same,"Frequency of the loss of X-chromosomes, %",Drosophila [6]; 10.0 mkg/female,1.2 ± 0.19%
same,"Protective Effect of Glucural, %",Drosophila [7]; Amphotericin B/Glucural vs Amphotericin B,26%
same,"Frequency of X-Chromosomes loss, %",Drosophila [7]; Diet (nistatin resistant yeasts),4.1 ± 0.33%
same,"Protective Effect of Glucural, %",Drosophila [7]; Diet/Glucural vs Diet,27%
same,"Protective Effect of Glucural, %",Drosophila [7]; Glucural vs Control,50%
same,"Frequency of X-Chromosomes loss, %",Drosophila [7]; yeast of wild type,0.9 ± 0.14%
same,LD50 equivalent for a 50-kg person,mice; extrapolated from mice,100 g
same,LD50,mice; mice,about 2 g/kg
same,shelf life,Shelf life,more than 10 years
